Measurements from patent US8729089B2 (Gilead Sciences, Inc., priority 2006, dated 2014).

What was measured:
[1] = tested on: HCV replicon in human hepatoma Huh-7 cell line; assay: Anti-HCV replicon assay (EC50, luciferase); type: cell-based; conditions: Hepatitis C virus, Huh-7, 72 h
How it was run: (§1)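 Huh-7 cells carrying an HCV replicon (6000/well) exposed to 3-fold serial compound dilutions for 3 days at 37 °C, final DMSO 0.5% where used. EC50 read as replicon luciferase luminescence after cell lysis; CC50 from CellTiter-Glo luminescence after 10 min at room temperature.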

[2] = CC50 assay (CellTiter-Glo) in Huh-7 HCV replicon cells; type: cell-based, human; conditions: human, 3 days incubation, CellTiter-Glo readout
How it was run: as §1

| Structure (SMILES) | EC50 [1] [µM] | CC50 at 3 days [2] [µM] |
| --- | --- | --- |
| CCOc1nc(NCc2ccc(S(N)(=O)=O)cc2)nc2ccc(-c3ccc(NC(=O)NC4CC4)cc3)nc12 [Example 131, 4-{[4-Ethoxy-6-(4-(3-cyclopropylureido)-phenyl)-pyrido[3,2-d]pyrimidin-2-ylamino]-methyl}-benzenesulfonamide] | < 0.1 | 5 to 25 |
| CCOc1nc(NCc2ccc(S(N)(=O)=O)cc2)nc2ccc(-c3cccc(NS(=O)(=O)N(C)C)c3)nc12 [Example 132] | < 0.1 | < 5 |
| CCOc1nc(NCc2ccc(S(N)(=O)=O)cc2)nc2ccc(-c3cccc(S(N)(=O)=O)c3)nc12 [Example 133, 4-{[4-Ethoxy-6-(3-(aminosulfonyl)-phenyl)-pyrido[3,2-d]pyrimidin-2-ylamino]-methyl}-benzenesulfonamide] | < 0.1 | 5 to 25 |
| CCOc1nc(NCc2ccc(S(N)(=O)=O)cc2)nc2ccc(-c3ccc(S(N)(=O)=O)cc3)nc12 [Example 134, 4-{[4-Ethoxy-6-(4-(aminosulfonyl)-phenyl)-pyrido[3,2-d]pyrimidin-2-ylamino]-methyl}-benzenesulfonamide] | < 0.1 | 5 to 25 |
| CCOc1nc(NCc2ccc(S(N)(=O)=O)cc2)nc2ccc(-c3ccc(NC(=O)C(C)(C)N)cc3)nc12 [Example 135, 4-{[4-Ethoxy-6-(4-((2-amino-2-propyl)-carboxamido)-phenyl)-pyrido[3,2-d]pyrimidin-2-ylamino]-methyl}-benzenesulfonamide] | < 0.1 | < 5 |
| CCOc1nc(NCc2ccc(S(N)(=O)=O)cc2)nc2ccc(-c3ccc(NC(=O)C4(O)CC4)cc3)nc12 [Example 136, 4-{[4-Ethoxy-6-(4-((1-hydroxy-1-cyclopropyl)-carboxamido)-phenyl)-pyrido[3,2-d]pyrimidin-2-ylamino]-methyl}-benzenesulfonamide] | < 0.1 | 5 to 25 |
| CCOc1nc(NCc2ccc(S(N)(=O)=O)cc2)nc2ccc(-c3ccc(NC(=O)[C@@H](N)CO)cc3)nc12 [Example 137, (S)-4-{[4-Ethoxy-6-(4-((2-hydroxy-1-aminoethyl)-carboxamido)-phenyl)-pyrido[3,2-d]pyrimidin-2-ylamino]-methyl}-benzenesulfonamide] | < 0.1 | 5 to 25 |
| CCOc1nc(NCc2ccc(S(N)(=O)=O)cc2)nc2ccc(-c3ccc(C(N)=O)cc3)nc12 [Example 138, 4-{[4-Ethoxy-6-(4-carbamoylphenyl)-pyrido[3,2-d]pyrimidin-2-ylamino]-methyl}-benzenesulfonamide] | < 0.1 | 5 to 25 |
| CCOc1nc(NCc2ccc(S(N)(=O)=O)cc2)nc2ccc(-c3ccc(F)c(NS(=O)(=O)C4CC4)c3)nc12 [Example 139, 4-{[4-Ethoxy-6-(4-(3-cyclopropanesulfonamido-4-fluoro)-phenyl)-pyrido[3,2-d]pyrimidin-2-ylamino]-methyl}-benzenesulfonamide] | < 0.1 | < 5 |
| CCOc1nc(NCc2ccc(S(N)(=O)=O)cc2)nc2ccc(-c3cccc(N(CCO)S(C)(=O)=O)c3)nc12 [Example 140, 4-{[4-Ethoxy-6-(4-(3-(N-2-hydroxy-ethyl)methanesulfonamido)-phenyl)-pyrido[3,2-d]pyrimidin-2-ylamino]-methyl}-benzenesulfonamide] | 0.1 to 0.25 | > 25 |
| CCOc1nc(NCc2ccc(S(N)(=O)=O)cc2)nc2ccc(-c3ccc(C(=O)NC(C)(C)CN4CCCC4)cc3)nc12 [Example 142, 4-{[4-Ethoxy-6-(4-(N-(2-(pyrrolidin-1-yl)methyl-2-propyl)-carbamoyl)phenyl)-pyrido[3,2-d]pyrimidin-2-ylamino]-methyl}-benzenesulfonamide] | < 0.1 | < 5 |
| CCOc1nc(NCc2ccc(S(N)(=O)=O)cc2)nc2ccc(-c3ccc(C(=O)NC4(C#N)CC4)cc3)nc12 [Example 143, 4-{[4-Ethoxy-6-(4-(N-(1-cyano-1-cyclopropyl)-carbamoyl)phenyl)-pyrido[3,2-d]pyrimidin-2-ylamino]-methyl}-benzenesulfonamide] | < 0.1 | 5 to 25 |
| CCOc1nc(NCc2ccc(S(N)(=O)=O)cc2)nc2ccc(-c3ccc(C(=O)NC4CC4)cc3)nc12 [Example 144, 4-{[4-Ethoxy-6-(4-(N-cyclopropylcarbamoyl)phenyl)-pyrido[3,2-d]pyrimidin-2-ylamino]-methyl}-benzenesulfonamide] | < 0.1 | 5 to 25 |
| CCOc1nc(NCc2ccc(S(N)(=O)=O)cc2)nc2ccc(-c3ccc(F)c(S(N)(=O)=O)c3)nc12 [Example 145, 5-[4-Ethoxy-2-(4-sulfamoyl-benzylamino)-pyrido[3,2-d]pyrimidin-6-yl]-2-fluoro-benzenesulfonamide] | < 0.1 | 5 to 25 |
| CCOc1nc(NCc2ccc(S(N)(=O)=O)cc2)nc2ccc(-c3ccc(NC(=O)[C@H](C)N)cc3)nc12 [Example 146, 2-Amino-N-{4-[4-ethoxy-2-(4-sulfamoyl-benzylamino)-pyrido[3,2-d]pyrimidin-6-yl]-phenyl}-propionamide] | < 0.1 | 5 to 25 |
| CCOc1nc(NCc2ccc(S(N)(=O)=O)cc2)nc2ccc(-c3ccc(NC(=O)[C@@H](N)[C@@H](C)O)cc3)nc12 [Example 147, 2-Amino-N-{4-[4-ethoxy-2-(4-sulfamoyl-benzylamino)-pyrido[3,2-d]pyrimidin-6-yl]-phenyl}-3-hydroxy-butyramide] | < 0.1 | < 5 |
| CS(=O)(=O)CCNc1nc(NCc2ccc(S(N)(=O)=O)cc2)nc2ccc(-c3cnc(N)s3)nc12 [Example 148, 4-{[4-(2-Methanesulfonylethyl)-amino-6-(2-aminothiazole-5-yl)-pyrido[3,2-d]pyrimidin-2-ylamino]-methyl}-benzenesulfonamide] | < 0.1 | 5 to 25 |
| NS(=O)(=O)c1ccc(CNc2nc(NCC(F)(F)F)c3nc(-c4ccc(F)cc4)ccc3n2)cc1 [Example 149, 4-{[4-(2,2,2-Trifluoroethyl)-amino-6-(4-fluorophenyl)-pyrido[3,2-d]pyrimidin-2-ylamino]-methyl}-benzenesulfonamide] | < 0.1 | 5 to 25 |
| CS(=O)(=O)CCNc1nc(NCc2ccc(S(N)(=O)=O)cc2)nc2ccc(-c3ccc(F)c(Cl)c3)nc12 [Example 150, 4-{[4-(2-Methanesulfonylethyl)-amino-6-(3-chloro-4-fluorophenyl)-pyrido[3,2-d]pyrimidin-2-ylamino]-methyl}-benzenesulfonamide] | < 0.1 | < 5 |
| NS(=O)(=O)c1ccc(CNc2nc(NCC(F)F)c3nc(-c4ccc(F)cc4)ccc3n2)cc1 [Example 151, 4-{[4-(2,2-Difluoroethyl)-amino-6-(4-fluorophenyl)-pyrido[3,2-d]pyrimidin-2-ylamino]-methyl}-benzenesulfonamide] | < 0.1 | < 5 |
| CN(CCS(C)(=O)=O)c1nc(NCc2ccc(S(N)(=O)=O)cc2)nc2ccc(-c3ccc(F)cc3)nc12 [Example 152, 4-{[4-(N-(2-Methanesulfonylethyl)-N-methyl)-amino-6-(4-fluorophenyl)-pyrido[3,2-d]pyrimidin-2-ylamino]-methyl}-benzenesulfonamide] | < 0.1 | < 5 |
| CS(=O)(=O)CCNc1nc(NCc2ccc(S(N)(=O)=O)cc2)nc2ccc(-c3ccc(F)cc3)nc12 [Example 153, 4-{[4-(2-Methanesulfonylethyl)-amino-6-(4-fluorophenyl)-pyrido[3,2-d]pyrimidin-2-ylamino]-methyl}-benzenesulfonamide] | < 0.1 | < 5 |
| CC(C)(N)C(=O)Nc1ccc(-c2ccc3nc(NCc4ccc(S(N)(=O)=O)cc4)nc(NCCS(C)(=O)=O)c3n2)cc1 [Example 154, 4-{[4-(2-Methanesulfonylethyl)-amino-6-(4-((2-amino-2-propyl)-carboxamido)-phenyl)-pyrido[3,2-d]pyrimidin-2-ylamino]-methyl}-benzenesulfonamide] | 0.1 to 0.25 | > 25 |
| CS(=O)(=O)CCNc1nc(NCc2ccc(S(N)(=O)=O)cc2)nc2ccc(-c3ccc(NC(=O)C4(O)CC4)cc3)nc12 [Example 155, 4-{[4-(2-Methanesulfonylethyl)-amino-6-(4-((1-hydroxy-1-cyclopropyl)-carboxamido)-phenyl)-pyrido[3,2-d]pyrimidin-2-ylamino]-methyl}-benzenesulfonamide] | 0.1 to 0.25 | > 25 |
| N[C@@H](CO)C(=O)Nc1ccc(-c2ccc3nc(NCc4ccc(S(N)(=O)=O)cc4)nc(NCC(F)(F)F)c3n2)cc1 [Example 156, (S)-4-{[4-(2,2,2-Trifluoroethyl)-amino-6-(4-((2-hydroxy-1-aminoethyl)-carboxamido)-phenyl)-pyrido[3,2-d]pyrimidin-2-ylamino]-methyl}-benzenesulfonamide] | < 0.1 | < 5 |
| CS(=O)(=O)N(CCO)c1cccc(-c2ccc3nc(NCc4ccc(S(N)(=O)=O)cc4)nc(NCC(F)F)c3n2)c1 [Example 157, 4-{[4-(2,2-Difluoroethyl)-amino-6-(4-(3-(N-2-hydroxyethyl)methane-sulfonamido)-phenyl)-pyrido[3,2-d]pyrimidin-2-ylamino]-methyl}-benzenesulfonamide] | < 0.1 | > 25 |
| NS(=O)(=O)c1ccc(CNc2nc(NCC(F)(F)F)c3nc(-c4ccc(C(=O)NC5CC5)cc4)ccc3n2)cc1 [Example 158, 4-{[4-(2,2,2-Trifluoroethyl)-amino-6-(4-(N-cyclopropylcarbamoyl)-phenyl)-pyrido[3,2-d]pyrimidin-2-ylamino]-methyl}-benzenesulfonamide] | < 0.1 | 5 to 25 |
